Test results published in patent US20030013658A1, “Small peptides and methods for treatment of asthma and inflammation” (Hisatek, LLC, priority 1997, published 2003).
Where no end group is shown, it is not given here. The star is where a group is joined. For = O=C*

Legend:
[1] = tested on: induced type II collagen arthritis; assay: Induced type II collagen arthritis mouse model; format: in vivo; conditions: HK-X TC or footpad, 0.4 or 4 mg/kg for 20 days; method written in present tense
From the text: A mouse model is used to evaluate the effect of the compounds of the present invention on the histological, radiographic and clinical appearance of induced type II collagen arthritis. Mice: DBA/1(2) male mice weighing 25 gms (Jackson Laboratories, Bar Harbor, Me. or B&K Universal, Kent Wash.) are used for this work. This strain of mouse is susceptible to CIA by the injection of heterologous type II collagen. Bovine Collagen (BC), Complete Freund's Adjuvant (CFA) and Incomplete Freund's Adjuvant (ICFA) can be obtained from Sigma Chemical. Antigen for immunization is processed in 0.1 M acetic acid and formulated with CFA or ICFA. […] The degree of cellularity and areas of inflammation are quantified by using digitization of histological photomicrographs and applying standard area and point counting techniques as described above. […] The average area of soft tissue (pannus) of the joint is determined by analysis of computer digitized radiographs, along with changes in density of the adjacent hard tissues by comparison with internal standards included with each radiograph. […] The significance of the differences in density and area for control and experimental mice is assessed using paired T-tests at each time point. […] Swelling of hind paws is also quantitated by measuring the thickness of the ankle from the medial to the lateral malledus with a constant tension caliper. […]

[2] = tested on: mast cell degranulation induced by Compound 48/80; assay: Rat skin model: inhibition of Compound 48/80-induced mast cell degranulation (capillary permeability, trypan blue); format: in vivo; conditions: 0.15 μg Compound 48/80
Procedure: The Rat Skin Model for Determination of Inhibition of Mast Cell Degranulation
In this model, the blood plasma of the experimental rat is labeled with the dye trypan blue. This soluble dye is carried in the bloodstream as a passive marker of plasma itself, and is excluded from live cells. Intact blood vessels, including the capillary system, retain this dye under normal circumstances. A compound, which induces degranulation of mast cells (resulting in leukotriene and histamine release), is injected into the skin to simulate allergen-induced degranulation. In these experiments, Compound 48/80 was used for this purpose. In the events following leukotriene and histamine release, capillary permeability is increased, and plasma, dyed blue, leaks from capillaries and dyes the skin surrounding the injection site blue. The area of bluing is a measure of the amount of Compound 48/80 injected.
A compound can be tested for “anti-leukotriene” and/or “anti-histamine” activity by mixing it with Compound 48/80 prior to injection.
The rat skin model was undertaken and validated. Various peptides were tested at a predetermined dose for anti-leukotriene and/or anti-histamine activity. The dose selected allowed a general comparison to f-Met-Leu-Phe, which was standard compound for comparison.
A “dose response” titration was performed for some compounds and compared with the standard compound. Observing serial decreases in the size areas of capillary permeability using serially smaller doses of the putative inhibitory compound validates the inhibition of leukotriene and/or histamine release observed in the initial predetermined dose test.
Reagents were obtained from Sigma or Aldrich, with the exception of ketamine, a veterinary anaesthetic that was obtained from various veterinary suppliers. The rats used were male Sprague-Dawley breed, 220-240 g at time of purchase from B&K International.
For the rat skin reaction, rats were anaesthetized with 0.25 ml 10 mg/ml ketamine. 1.0 ml trypan blue in saline (sterile filtered) was administered in a tail vein, and the back of the rat was shaved. Four intradermal injection sites per rat were used for test and control injections.
Compound 48/80 was prepared as a 1.5 mg/ml stock solution in saline. […] Serial dilutions in saline to working levels were prepared just prior to injection of each rat.
Peptides were prepared as a 23 mM stock solution in DMSO, and stored at −20° C. between experiments. At the time of use, the frozen stock solutions were thawed, and appropriate aliquots added to dilutions of Compound 48/80, along with appropriate amounts of DMSO, to result in the ratio of 5 μl DMSO to 0.1 ml aqueous Compound 48/80.
For injections, 0.1 ml […], +1/− test compounds were injected intradermally into anaesthetized, dyed, and shaved rats. Following a 15 minute incubation, the rats were sacrificed by cervical dislocation and the back skin was evulsed and placed on a light box. An image of the backlit skin was digitized using a CCD video capture camera and compatible hardware/software. The digitized image was analyzed using a scientific graphics analysis software package, and the areas of capillary permeability (bluing) were integrated and digital values were obtained for further analysis.
A dose response curve was generated using Compound 48/80 at various doses from ca. 0.01 μg through ca. 15 μg. […] A dose of 0.15 μg of Compound 48/80 was selected for conducting further tests.
Several f-Met-Leu peptides were tested for inhibition of induced degranulation in the rat skin model using 100 nanomoles of the test peptide and a dose of 0.15 μg Compound 48/80. An intrinsic zero-peptide-dose 48/80 control was included in each rat for each experiment, and the % of inhibition was expressed in relative terms to this control (0% inhibition). The percent mast cell degranulation produced by 48/80 was also determined.

Substance: f-Met-Leu-Phe-Phe (For-MLFF) [Example 9]
- degree of arthritis [1]: found to reduce the degree of arthritis
- inhibition of induced degranulation compared with standard f-Met-Leu-Phe ([2]; dose response): unexpectedly substantially better than that of the standard compound f-Met-Leu-Phe
- dose response, inhibition of degranulation induced by Compound 48/80 ([2]; doses of 0 to about 230 nM peptide, FIG. 2 / FIG. 3): Surprisingly remarkable inhibition of degranulation induced by Compound 48/80 was clearly shown
- % Degranulation ([2]; percent mast cell degranulation produced by 48/80, 100 nanomoles peptide): 1-3%
